Results: patent US20180296630A1, “METHODS AND COMPOSITIONS FOR PREVENTING OR TREATING OPHTHALMIC CONDITIONS” (Stealth BioTherapeutics Corp, priority 2012, published 2018)

Assays:
[1] = tested on: primary human retinal pigment epithelial (RPE) cells; test: Viability of primary RPE cells exposed to tBHP (MTT); format: cell-based; details: preincubated 4 h with different concentrations, then tBHP 6 h
Procedure: Next, the viability of primary RPE cells was tested in the presence of tBHP and various concentrations of D-Arg-2′,6′-Dmt-Lys-Phe-NH2. Cells were plated at 10,000 cells per well in a 96-well plate and cultured for 24 h, then starved for 24 h. After that, cells were exposed to increasing concentrations of tBHP (FIG. 23A), or preincubated for 4 h with different concentrations of D-Arg-2′,6′-Dmt-Lys-Phe-NH2, then stimulated with tBHP for 6 h (FIG. 23B). […] Intracellular ROS production in three groups of RPE cells was also examined using FACS analysis. […] Three different concentration of D-Arg-2′,6′-Dmt-Lys-Phe-NH2 groups were analyzed. The ratio of red to green in 500 μM tBHP for the 3 h group is 1.08, the ratio of red to green in 10 nM D-Arg-2′,6′-Dmt-Lys-Phe-NH2 for 4 h+500 tBHP for 3 h group is 1.25; the ratio of red to green in 100 nM D-Arg-2′,6′-Dmt-Lys-Phe-NH2 for 4 hr+500 μM tBHP for 3 h group is 1.4; and the ratio of red to green in 1 μM D-Arg-2′,6′-Dmt-Lys-Phe-NH2 for 4 h+500 μM tBHP for 3 h group is […]. […] FIG. 33A: Control group, R/G is 3.63±0.24; FIG. 33B: 500 μM tBHP for 3 h group, R/G is 1.08±0.11; FIG. 33C: 1 μM D-Arg-2′,6′-Dmt-Lys-Phe-NH2 for 4 h+500 μM tBHP for 3 h group, R/G is 2.38±0.18. FIG. 33D is a chart comparing the fluorescence ratio for the different groups. *P<0.01, C vs. B.

[2] = tested on: HTM cells; test: TMRM fluorescence (mitochondrial membrane potential), acute H2O2 injury, FACS, HTM cells; format: cell-based, human; details: n=4
Source text: Methods to measure mitochondrial membrane potential using TMRM useful in the studies of the present invention have been described by Andrea Rasola and Massimo Geuna, A flow cytometry assay simultaneously detects independent apoptotic parameters, Cytometry 45:151-157, 2001; Mitoprobe™ JC-1 Kit for Flow Cytometry, Molecular Probes, Invitrogen, USA.
The mitochondrial membrane potential (Δψm) of HTM and GTM cells was investigated when those cells were exposed to hydrogen peroxide prior to administration of D-Arg-2′,6′-Dmt-Lys-Phe-NH2. First, the mitochondrial membrane potential was measured using confocal microscopy of cells labeled with tetramethylrhodamine methyl ester (TMRM, 500 nM×30 min) (FIG. 15). The mitochondrial membrane potential was also measured using flow cytometry (FIGS. 16-17) by labeling cells with the mitochondrion-selective probe tetramethylrhodamine methyl ester (TMRM, 500 nM×30 min).
The effects of D-Arg-2′,6′-Dmt-Lys-Phe-NH2 at mitigating acute oxidative injury in GTM and HTM cells was investigated. […] The percentage of fluorescence intensity compared to GTM control in H2O2, D-Arg-2′,6′-Dmt-Lys-Phe-NH2 10^−6M, D-Arg-2′,6′-Dmt-Lys-Phe-NH2 10^−7M, D-Arg-2′,6′-Dmt-Lys-Phe-NH2 10^−8M were 35.2±2.12%, 56.2±4.04%, 50.3±4.46%, 47.5±2.82% respectively, n=4; the HTM groups were 37.4±0.725%, 57.7±1.80%, 50.6±3.06%, 49.4±2.27% respectively, n=4. ** means P<0.01 compared to GTM H2O2 group; * means P<0.05 compared to GTM H2O2 group; ▴ ▴ ▴ means P<0.001 compared to HTM H2O2 group.

[3] = tested on: HTM cells; test: Intracellular ROS production, acute H2O2 injury, FACS, HTM cells; format: cell-based, human; details: n=4
Source text: (§1) The percentage of intracellular ROS production compared to GTM control in GTM H2O2, D-Arg-2′,6′-Dmt-Lys-Phe-NH2 10^−6M, D-Arg-2′,6′-Dmt-Lys-Phe-NH2 10^−7M, D-Arg-2′,6′-Dmt-Lys-Phe-NH2 10^−8M groups were 146.0±2.27%, 84.5±8.75%, 102.0±5.69%, 133.0±5.17% respectively (n=3); the HTM groups were 153.0±3.46%, 79±2.39%, 91.8±3.49%, 129.0±8.24% respectively (n=4). P<0.001 GTM and HTM H2O2 Group compared to control; *** means P<0.001 compared to GTM H2O2 group; ▴ ▴ ▴ Means P<0.001 compared to HTM H2O2 group; ▴ ▴ means P<0.01 compared to HTM H2O2 group.

[4] = tested on: GTM and HTM cells; test: Cell apoptosis induced by H2O2 (percentage of cells in Q2+Q4); format: cell-based, human; details: FIG. 38
Source text: FIG. 38A-38D are graphs showing cell apoptosis of control and D-Arg-2′,6′-Dmt-Lys-Phe-NH2(SS-31)-treated groups valued by percentage of cells in the Q2+Q4 quadrant.
as §1

[5] = tested on: iHTM cells; test: MMP decline, sustained oxidative injury by H2O2, iHTM cells; format: cell-based, human; details: then 200 μM H2O2 24 h
Procedure: The effects of D-Arg-2′,6′-Dmt-Lys-Phe-NH2 on sustained oxidative injury of GTM and HTM cells was examined. Cells were pre-treated with 10^−6, 10^−7, 10^−8M of D-Arg-2′,6′-Dmt-Lys-Phe-NH2 for 1 h, and then incubated with 200 μM H2O2 for 24 h to investigate the protective effect of D-Arg-2′,6′-Dmt-Lys-Phe-NH2 in sustained oxidative stress.

[6] = tested on: STZ diabetic rats; test: Lens opacity (cataract) in STZ rat model; format: in vivo, Sprague-Dawley rat; details: 10 mg (Table 11: 10 mg/kg s.c.)
Procedure: A rat model of diabetes was established by combination of 6-week HFD and low dose of STZ (30 mg/kg) injection or a single high dose of STZ (65 mg/kg) in SD rats. See generally, K. Srinivasan, B. Viswanad, Lydia Asrat, C. L. Kaul and P. Ramarao, Combination of high-fat diet-fed and low-dose streptozotocin-treated rat: A model for type 2 diabetes and pharmacological screening, Pharmacological Research, 52(4): 313-320, 2005. Rats of the same batch fed with normal chow (NRC) were used as a control.

**Q.** How did the “cell viability in response to tBHP” value [1] turn out when D-Arg-2′,6′-Dmt-Lys-Phe-NH2 was run?
**A.** enhanced

**Q.** And the “percentage of TMRM fluorescence intensity compared to control” value ([2]; 10^−6M)?
**A.** 57.7±1.80%

**Q.** And the “percentage of TMRM fluorescence intensity compared to control” value ([2]; 10^−7M)?
**A.** 50.6±3.06%

**Q.** And the “percentage of TMRM fluorescence intensity compared to control” value ([2]; 10^−8M)?
**A.** 49.4±2.27%

**Q.** What about the “percentage of intracellular ROS production compared to control” value ([3]; 10^−6M) of the same substance?
**A.** 79±2.39%

**Q.** What about the “percentage of intracellular ROS production compared to control” value ([3]; 10^−7M) of the same substance?
**A.** 91.8±3.49%

**Q.** And the “percentage of intracellular ROS production compared to control” value ([3]; 10^−8M)?
**A.** 129.0±8.24%

**Q.** What about the “amount of cell apoptosis induced by H2O2” value [4] of the same substance?
**A.** reduced

**Q.** What about the “MMP Decline” value ([5]; 0.01 μM pre-treatment 1 h) of the same substance?
**A.** −58.24 ± 2.62 %

**Q.** What about the “MMP Decline” value ([5]; 0.1 μM pre-treatment 1 h) of the same substance?
**A.** −53.24 ± 2.52 %

**Q.** What about the “MMP Decline” value ([5]; 1 μM pre-treatment 1 h) of the same substance?
**A.** −44.99 ± 2.19 %

**Q.** What about the “Opacity degree ++++, number in group” value [6] of the same substance?
**A.** 1

**Q.** What about the “Opacity degree +++, number in group” value [6] of the same substance?
**A.** 0

**Q.** And the “Opacity degree ++, number in group” value [6]?
**A.** 0

**Q.** And the “Opacity degree +, number in group” value [6]?
**A.** 2

**Q.** And the “Opacity degree −, number in group” value [6]?
**A.** 2

**Q.** What about the Percentage of opacity [6] of the same substance?
**A.** 60.0%

**Q.** And the “Percentage of severe opacity” value [6]?
**A.** 20.0%
